{
  "source": "patent US20220220558A1",
  "about": "“METHODS AND SYSTEMS FOR PROGNOSIS OF A PATIENT'S RESPONSE TO TREATMENT OF ANDROGENETIC SKIN DISORDERS” (priority 2008, published 2022)",
  "origin": "cited, not measured here",
  "tested_on": "female androgenetic alopecia",
  "conditions": "clinical trials",
  "data": [
    {"smiles": "CC(C)(C)NC(=O)[C@H]1CC[C@H]2[C@@H]3CC[C@H]4NC(=O)C=C[C@]4(C)[C@H]3CC[C@]12C", "note": "[finasteride]", "values": [
      {"measurement": "affect on hair re-growth in women", "result": "statistically not significant"}
    ]}
  ]
}
